These results are taken from patent US20200353107A1, “IN VIVO IMAGING OF TUMOR INFILTRATION LEUKOCYTES” (STC.UNM, priority 2017, published 2020).

One series has as its target T1, LFA-1 receptor (Mus musculus, UniProt P24063).
T1 construct: Leukocyte function-associated antigen-1 (LFA-1) receptors are normally expressed by all white blood cells; from tissue; host or cells: live mice (leukocytes in vivo)
Kind of series: SPECT/CT imaging of mice after intravenous injection of the radioligand. It counts as in vivo. On the procedure: Mice are imaged with the Bioscan NanoSPECT/CT imaging system. Dynamic images are obtained immediately following injection of ˜750 uCi of ^111In-ROTA-alkylamino-NorBIRT intravenously. Static images are also obtained at 2, 4, and 24 hours post injection. Images are individually characterized.

Series [1] in a line: Biodistribution study (gross dissection and tissue harvest). Format: in vivo, mice. The conditions noted are these: dissection at 18 and 24 hrs post-inoculation. On the procedure: […] Results are evaluated as the percent injected dose per gram of tissue. The organs assessed are the heart, blood, stomach, liver, spleen, adrenals, kidneys, bone, muscle, bladder, testes, as well as the abcess or site of infection.

T1 sequence (P24063 24-1162): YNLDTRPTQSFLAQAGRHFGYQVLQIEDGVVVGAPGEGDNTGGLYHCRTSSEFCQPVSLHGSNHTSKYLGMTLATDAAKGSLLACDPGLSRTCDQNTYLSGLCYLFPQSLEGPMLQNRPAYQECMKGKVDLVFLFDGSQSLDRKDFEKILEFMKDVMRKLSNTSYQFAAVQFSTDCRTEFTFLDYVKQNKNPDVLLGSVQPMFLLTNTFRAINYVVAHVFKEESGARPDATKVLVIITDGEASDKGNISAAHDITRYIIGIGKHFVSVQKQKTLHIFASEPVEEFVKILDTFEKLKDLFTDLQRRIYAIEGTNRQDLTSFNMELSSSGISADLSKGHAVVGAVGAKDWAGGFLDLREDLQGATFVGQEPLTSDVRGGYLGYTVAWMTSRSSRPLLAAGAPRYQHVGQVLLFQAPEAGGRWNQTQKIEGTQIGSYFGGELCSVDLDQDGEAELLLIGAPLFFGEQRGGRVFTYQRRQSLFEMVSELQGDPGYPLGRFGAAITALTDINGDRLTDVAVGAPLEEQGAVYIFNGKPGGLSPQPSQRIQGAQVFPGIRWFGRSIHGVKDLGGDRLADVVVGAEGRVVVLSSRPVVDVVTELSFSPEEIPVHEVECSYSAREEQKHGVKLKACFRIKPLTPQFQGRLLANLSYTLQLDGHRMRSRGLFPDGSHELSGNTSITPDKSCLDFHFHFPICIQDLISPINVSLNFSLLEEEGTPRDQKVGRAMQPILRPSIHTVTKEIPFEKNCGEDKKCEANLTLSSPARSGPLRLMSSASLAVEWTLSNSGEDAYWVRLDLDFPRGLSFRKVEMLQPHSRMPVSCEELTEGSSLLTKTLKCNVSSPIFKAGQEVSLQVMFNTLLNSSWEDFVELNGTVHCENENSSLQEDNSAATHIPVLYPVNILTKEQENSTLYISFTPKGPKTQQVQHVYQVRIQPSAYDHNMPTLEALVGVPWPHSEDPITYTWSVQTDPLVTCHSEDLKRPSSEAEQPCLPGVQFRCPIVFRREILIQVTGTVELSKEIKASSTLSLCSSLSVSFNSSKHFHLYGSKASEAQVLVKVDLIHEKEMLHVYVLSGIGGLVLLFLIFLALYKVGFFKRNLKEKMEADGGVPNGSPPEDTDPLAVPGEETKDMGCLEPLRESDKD
T1 sequence (P11835 24-771 partner): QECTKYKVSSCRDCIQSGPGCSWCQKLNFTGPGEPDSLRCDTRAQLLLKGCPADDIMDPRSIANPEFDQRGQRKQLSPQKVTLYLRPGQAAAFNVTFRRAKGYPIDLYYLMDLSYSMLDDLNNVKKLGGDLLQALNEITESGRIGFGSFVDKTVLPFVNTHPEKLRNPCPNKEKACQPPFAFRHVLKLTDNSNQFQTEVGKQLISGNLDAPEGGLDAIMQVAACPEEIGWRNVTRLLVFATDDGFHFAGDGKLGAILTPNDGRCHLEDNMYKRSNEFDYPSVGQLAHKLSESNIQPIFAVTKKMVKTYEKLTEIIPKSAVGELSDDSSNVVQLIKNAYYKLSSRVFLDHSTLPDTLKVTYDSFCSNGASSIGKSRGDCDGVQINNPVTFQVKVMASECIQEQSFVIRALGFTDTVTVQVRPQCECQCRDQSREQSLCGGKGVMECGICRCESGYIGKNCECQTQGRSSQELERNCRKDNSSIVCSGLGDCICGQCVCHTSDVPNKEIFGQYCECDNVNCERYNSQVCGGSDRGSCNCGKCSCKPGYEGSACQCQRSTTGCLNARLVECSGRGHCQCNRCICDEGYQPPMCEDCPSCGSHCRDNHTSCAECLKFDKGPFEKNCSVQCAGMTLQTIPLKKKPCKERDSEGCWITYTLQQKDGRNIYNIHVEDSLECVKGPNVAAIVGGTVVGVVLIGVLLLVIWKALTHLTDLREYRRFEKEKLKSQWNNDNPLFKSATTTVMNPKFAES

Regarding “^111In-DOTA-alkylamino-NorBIRT [^111In-alkylaminoNorBIRT]”, the “uptake/retention at the tumor, early images” value on LFA-1 receptor (5 minutes post-injection) is “high concentrations”. Besides, on LFA-1 receptor (SPECT/CT images), the “focal retention in other tissues” value is listed as “no focal retention in any other tissues”; the “radioactivity in the bladder” value was “prompt and significant radioactivity in the bladder”. On LFA-1 receptor (SPECT/CT images, mice, i.v.), the “uptake in the tumor in SPECT/CT images” value is recorded as “focal uptake in the tumor”. At LFA-1 receptor (all time points, including 24 hours post-injection), the “persistence of focal tumor uptake” value is listed as “persists at all time points”. For the same substance, on LFA-1 receptor (as soon as 5 minutes post-injection and at all subsequent time points), the “urinary excretion in SPECT/CT images” value is “prompt and significant urinary excretion”. At LFA-1 receptor (in vivo SPECT/PET imaging of tumor sites), the “selectivity as imaging probe for LFA-1 receptor expression” value is given as “highly selective imaging probes”. In series [1], the “agreement of biodistribution data with image-based pharmacokinetic data” value was “correlate well with image-based pharmacokinetic data”.
